Results from patent US20260049078A1, “DIFLUORO- AND TRIFLUORO-ACETYL HYDRAZIDES AS SELECTIVE HDAC6 INHIBITORS” (ITALFARMACO S.P.A., priority 2022, published 2026).

What was measured:
[1] = system: human B cell precursor leukemia 697; assay: In vitro α-tubulin acetylation in 697 cell line; assay type: cell-based; conditions: Homo sapiens, B-cell, 16 h; read-out: TubAc 697 cells EC50
Procedure: The in vitro α-tubulin acetylation was evaluated on human B cell precursor leukemia 697.
The 697 cells were maintained in RPMI Medium 1640 (Gibco, cat: 21875-034) supplemented with 10 mM HEPES (Gibco, cat: 15630-080), Pen-Strep (Penicillin 100 U/ml, Streptomycin 100 μg/ml, Gibco, cat: 15140-122) and 10% fetal bovine serum (Gibco, cat: 10270-106).
The cells were plated in 12-well plates (Costar, cat: 3512) at the density of 5.5×10^5 cells/ml.
Serial dilutions of test compounds in DMSO were prepared using 20 mM stock solutions to obtain 8 doses 200× concentrated in respect to final doses (2.7-100000 nM). Then the DMSO solutions were diluted 10× in culture medium to obtain 20× concentrated solutions which were used for cells treatment (125 μl of medium solutions were added to 2.375 ml of cells suspension). The final DMSO content was set as 0.5%. The plates were incubated at 37° C., 5% CO2 for 16 hours.
At the end of the incubation period, the cells were harvested and centrifuged for 5 minutes at 200×g and washed with 0.9% NaCl at 4° C. The resulting pellet was treated for 30 minutes at 4° C. with 100 μl Complete Lysis-M buffer containing protease inhibitors (Complete Lysis-M Roche+Complete Tablets, Mini Easypack, cat: 4719956001) and phosphatase inhibitor cocktails (PhosStop Easypack, Roche, cat: 4906837001) and then centrifuged 10 minutes at 18213×g. The protein concentration in each supernatant was determined using BCA Protein Assay Kit (Pierce, cat: 23227). The samples were diluted in PBS 1× to obtain 2 μg/ml concentration and coated in MaxiSorp 96-well plates (Nunc, cat: 442404). The plates were incubated overnight at room temperature.
Plates were washed twice with Wash Buffer (PBS 1×+0.005% tween 20) and saturated for 1 hour at room temperature with 300 μL of 1×PBS containing 10% FBS. After washing twice with Wash Buffer, the plates were incubated for 2 hours at room temperature in the presence of 100 μl/well either anti-acetylated-α-tubulin antibody (Monoclonal Anti-Tubulin, Acetylated antibody produced in mouse, Sigma-Aldrich, cat: T6793) or total anti-α-tubulin antibody (Monoclonal Anti-α-Tubulin produced in mouse, Sigma-Aldrich, cat: T6074) diluted 1:1000 in 1×PBS containing 10% FBS. Following 5 washing cycles with Wash Buffer the secondary antibody conjugated with the enzyme HRP (Goat anti-Mouse IgG, IgM, IgA (H+L), stock concentration 0.5 mg/ml, Thermo Fisher Scientific, cat: A10668), diluted 1:1000 in 1×PBS+10% FBS was added at the volume of 100 μl/well. After two hours of incubation at room temperature the plates were washed 4 times with Wash Buffer, then 100 μl/well of TMB substrate (TMB substrate kit, Thermo Fisher Scientific, cat: 34021) was added for 10 minutes at room temperature in the dark. The reaction was stopped by adding 50 μl of 2M H2SO4. The plates were read in BioTek Synergy H1 multimode microplate reader at a wavelength of 450 nm.
The measured absorbance was corrected by subtracting the mean of blank values (samples without the primary antibody). The absorbance ratios of acetyl to total tubulin assays were calculated and normalized to the reference compound (positive control) 4 parameter logistic curve, where 0% is the fitted bottom and 100% is the fitted top of the curve. The results are expressed as relative EC50.

recombinant human HDAC1 = recombinant human HDAC1 (Homo sapiens (Human), UniProt Q13547); assay: Enzyme inhibitory activity assay on HDAC1; assay type: biochemical; conditions: 120 minutes preincubation at 25° C.
recombinant human HDAC1, sequence (Q13547 whole entry): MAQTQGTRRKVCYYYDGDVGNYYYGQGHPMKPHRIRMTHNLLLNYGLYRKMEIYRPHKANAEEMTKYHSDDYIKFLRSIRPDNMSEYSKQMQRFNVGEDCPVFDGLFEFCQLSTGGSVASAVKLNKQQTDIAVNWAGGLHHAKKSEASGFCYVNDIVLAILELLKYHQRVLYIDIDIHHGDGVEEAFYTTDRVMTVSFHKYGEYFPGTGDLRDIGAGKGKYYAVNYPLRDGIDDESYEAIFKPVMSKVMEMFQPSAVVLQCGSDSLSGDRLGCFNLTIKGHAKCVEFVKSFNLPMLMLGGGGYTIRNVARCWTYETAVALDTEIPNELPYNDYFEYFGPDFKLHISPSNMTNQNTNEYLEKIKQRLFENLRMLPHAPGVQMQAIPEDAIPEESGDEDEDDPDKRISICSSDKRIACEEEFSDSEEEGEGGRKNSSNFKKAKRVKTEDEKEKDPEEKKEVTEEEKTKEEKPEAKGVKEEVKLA
Procedure: (§1) For each test compound, 100× concentrated DMSO solutions at 8 doses were prepared and then diluted in assay buffer (25 mM Tris-HCl, pH 8, 130 mM NaCl, 0.05% Tween-20, 10% Glycerol) to obtain 5× concentrated solutions in relation to the final concentrations (typical final concentration range—6.4-200000 nM or 0.18-50000 nM, final DMSO content—1%). Then 10 μL solution of each test compound concentration were placed on a 96-well plate in triplicate and 15 μL of 3.33× concentrated enzyme solution in the assay buffer containing 3.33× concentrated BSA (final BSA concentration 1 mg/mL) and, in case of HDAC6, 3.33× concentrated TCEP (final TCEP concentration—200 μM) were added to each well. After a period of preincubation at 25° C. (30 minutes for HDAC6 and 120 minutes for HDAC1), 25 μL of solution containing the substrate were added. As substrate, FLUOR DE LYS® deacetylase substrate (Enzo Life Sciences, cat: BML-KI104, FdL), FLUOR DE LYS®-Green substrate (Enzo Life Sciences, cat: BML-KI572, FdL_G) or Boc-Lys(Tfa)-AMC (Bachem, cat: 4060676.005, Tfal)—2× concentrated solution in assay buffer were used. Following a reaction period (30 minutes at 25° C.), 50 μL of the development solution consisting of concentrate FLUOR DE LYS® developer I (Enzo Life Sciences, ca: BML-KI105), diluted 200 times in buffer (50 mM Tris-HCl, pH 8, 137 mM NaCl, 2.7 mM KCl, 1 mM MgCl2) plus 2 μM TSA was added and, after 25 minutes at room temperature in the dark, using the Victor 1420 Multilabel Counter Perkin Elmer Wallac instrument, the fluorescence reading was carried out (excitation/emission: 485/535 nM—Fluor de Lys Green, 355/460 nM—Tfal, Fluor de Lys).
(§2) Enzymatic activity on recombinant human HDAC6 and HDAC1 was evaluated (Table 2) for each synthesized compound.

SH-SY5Y cells = assay: In vitro α-tubulin acetylation in undifferentiated SH-SY5Y cells; assay type: cell-based; conditions: overnight, @1uM
Procedure: SH-SY5Y cells (ATCC, cod. CRL-2266) are plated in optical optimized 96-well black plates (Perkin Elmer, cod. 6055302) at 5000 cells/well in 100 μl/well of growth medium (DMEM/F12 (1:1)+10 mM hepes+100 units/mL of penicillin+100 μg/mL of streptomycin+10% of inactivated Foetal calf serum (FCS, Hyclone)).
After 24 h of seeding, cells are incubated overnight with the selected molecules at 0.1-1-10 μM. ACY1083 and Tubastatin A, at the same doses, are tested as positive controls of α-Tubulin acetylation, while untreated cells are incubated with 0.01% DMSO and indicated as CTRL DMSO.
At the end of the incubation, cells are fixed adding 100 μL/well of formaldehyde 8% in PBS (final formaldehyde concentration 4% in 200 μL/well) directly in the 100 μL/well of medium, for 30 min at RT. The fixing solution is carefully removed, and wells are washed twice with PBS for 10 min each. Fixed cells are kept in PBS at 4° C. until staining.
The day of the staining experiment, the fixed cells are incubated 60 min with the blocking buffer (PBS with 5% FCS+0.3% Triton™ X-100). While blocking, primary antibodies are prepared by diluting 1:200 the α-Tubulin Alexa Fluor 488 Conjugate (Cell Signaling, cod. 5063) antibody and 1:50 Acetyl-α-Tubulin Alexa Fluor 647 Conjugate (Cell Signaling, cod. 81502) antibody in the Antibody Dilution Buffer (PBS with 1% BSA+0.3% Triton™ X-100). Once the blocking solution is aspirated, the diluted primary antibodies are applied and incubated overnight at 4° C. The next day, cells are rinsed twice with PBS (10 min each), incubated 5 min with 300 nM DAPI in PBS, and then rinsed twice with PBS (10 min each). For each treatment, 3 wells are stained.
Images of the stained cells are acquired by means of the IN Cell Analyzer 2500 HS Instrument, using: far red channel for Acetyl-α-Tubulin staining (exposure 0.02 sec), green channel for α-Tubulin staining (exposure 0.02 sec), and blue channel for DAPI (nuclei) staining. For each well, 10 images are acquired.
Images of stained cells are analysed with the InCarta software (Molecular Devices) for obtaining fluorescence intensity considering whole cells. For each treatment, mean values of Cell intensity—Bckg (Cell), for both staining, are obtained using the InCarta raw data by FOV (Field of View). Results are expressed as fold increase of the ratio of acetylated tubulin and total tubulin towards control (CTRL DMSO).

recombinant human HDAC6 = recombinant human HDAC6 (Homo sapiens (Human), UniProt Q9UBN7); assay: Enzyme inhibitory activity assay on HDAC6; assay type: biochemical; conditions: 30 minutes preincubation at 25° C.
recombinant human HDAC6, sequence (Q9UBN7 whole entry): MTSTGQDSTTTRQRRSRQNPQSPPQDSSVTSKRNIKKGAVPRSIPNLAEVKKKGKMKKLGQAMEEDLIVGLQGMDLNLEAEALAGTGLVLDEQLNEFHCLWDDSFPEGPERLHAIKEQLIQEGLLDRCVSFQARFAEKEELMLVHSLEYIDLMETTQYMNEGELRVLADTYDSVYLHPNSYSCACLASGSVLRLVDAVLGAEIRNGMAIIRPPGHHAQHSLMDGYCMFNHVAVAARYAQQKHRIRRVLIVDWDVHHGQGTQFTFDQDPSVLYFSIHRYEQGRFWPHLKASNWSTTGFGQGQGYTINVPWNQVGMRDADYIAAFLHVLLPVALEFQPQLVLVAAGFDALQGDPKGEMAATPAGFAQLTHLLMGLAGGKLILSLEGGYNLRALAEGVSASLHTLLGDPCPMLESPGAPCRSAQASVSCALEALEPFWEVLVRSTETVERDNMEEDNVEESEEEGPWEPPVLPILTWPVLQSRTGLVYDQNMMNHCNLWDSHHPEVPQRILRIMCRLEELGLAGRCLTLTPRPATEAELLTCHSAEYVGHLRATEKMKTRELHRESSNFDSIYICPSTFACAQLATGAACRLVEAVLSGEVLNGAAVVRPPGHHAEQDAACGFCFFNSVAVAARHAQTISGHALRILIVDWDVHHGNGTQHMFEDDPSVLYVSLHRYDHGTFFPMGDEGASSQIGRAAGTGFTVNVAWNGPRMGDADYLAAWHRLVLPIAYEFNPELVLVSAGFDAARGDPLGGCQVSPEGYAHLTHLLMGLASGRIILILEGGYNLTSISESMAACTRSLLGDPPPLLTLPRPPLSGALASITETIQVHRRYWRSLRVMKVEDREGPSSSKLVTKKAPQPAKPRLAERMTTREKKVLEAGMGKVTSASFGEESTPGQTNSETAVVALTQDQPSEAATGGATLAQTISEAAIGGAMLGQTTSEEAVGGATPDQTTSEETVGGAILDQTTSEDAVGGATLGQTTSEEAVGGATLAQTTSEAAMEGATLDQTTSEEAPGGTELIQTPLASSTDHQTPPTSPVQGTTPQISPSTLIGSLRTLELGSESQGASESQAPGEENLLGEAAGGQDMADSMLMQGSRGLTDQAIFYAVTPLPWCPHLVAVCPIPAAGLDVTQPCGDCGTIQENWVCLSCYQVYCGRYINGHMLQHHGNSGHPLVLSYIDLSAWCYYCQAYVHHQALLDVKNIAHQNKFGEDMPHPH
Procedure: as §1, §2

zHDAC6-CD2 wt = zHDAC6-CD2 wt (Danio rerio (Zebrafish) (Brachydanio rerio), UniProt F8W4B7); assay: Isolation of long-lived/tight complex (spin column chromatography with LC-HRMS); assay type: binding; conditions: zHDAC6-CD2 wt 1 μM, compound 5 μM, 6 hours, Bio-Spin P-6
zHDAC6-CD2 wt, sequence (F8W4B7 entry or part of it del 1-439/del 799-1081 limits assumed): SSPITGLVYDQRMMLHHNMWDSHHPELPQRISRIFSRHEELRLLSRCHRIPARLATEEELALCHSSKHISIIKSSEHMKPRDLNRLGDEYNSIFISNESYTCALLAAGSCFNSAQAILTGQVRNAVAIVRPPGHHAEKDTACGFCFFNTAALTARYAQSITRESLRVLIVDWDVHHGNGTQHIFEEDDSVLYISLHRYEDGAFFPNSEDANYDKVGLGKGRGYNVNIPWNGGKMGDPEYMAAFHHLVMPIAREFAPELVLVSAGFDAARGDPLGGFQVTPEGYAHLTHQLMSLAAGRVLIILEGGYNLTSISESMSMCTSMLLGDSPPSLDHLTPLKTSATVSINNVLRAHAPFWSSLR
Procedure: Rapid chromatography on spin columns coupled to LC-HRMS was used to attempt the isolation of long-lived/tight complexes between HDAC6 and examples 1 and 1-A. zHDAC6-CD2 wt (1 μM) was incubated with 1 (5 μM) or 1-A (also 5 μM) as described before for 6 hours. An aliquot (60 μL) was loaded on a Bio-Spin P-6 Gel Column (Bio-Rad) that had been equilibrated with assay buffer in order to separate the HDAC6-inhibitors complexes from free compounds. After centrifugation to elute the initial fraction containing most of the enzyme, ten 200 μL aliquots were applied and eluted by centrifugation to collect the low molecular weight (free) compounds. Aliquots of the fractions were subjected to LC-HRMS analysis (as described above) for identification and quantitation of 1 and its derivatives.

SMILES | EC50 [1] | IC50 (recombinant human HDAC1) | TubAc SH-SY5Y cells fold increase of the ratio of acetylated tubulin and total tubulin towards control (SH-SY5Y cells) | IC50 (recombinant human HDAC6) | co-elution with the enzyme (fraction 1) (zHDAC6-CD2 wt)
CC(c1ccc(-c2nnc(C(F)F)o2)cn1)n1cc(-c2ccc(N)nc2)nn1 (centres unmarked) [Compound 39-A] | 320 nM | > 100000 nM | 6.5 fold | 14 nM | 
O=C(NNC(=O)C(F)F)c1ccc(Cn2cc(-c3ccc(NC4=NCCN4)cc3)nn2)cc1 [Compound 1, N′-(2,2-difluoroacetyl)-4-((4-(4-((4,5-dihydro-1H-imidazol-2-yl)amino)phenyl)-1H-1,2,3-triazol-1-yl)methyl)benzohydrazide] |  |  |  |  | co-elutes with the enzyme
